The test system of data set [1] is AKT phosphorylation in bone marrow-derived myeloid cells. Kind of data set: AKT phosphorylation in myeloid cells stimulated with macrophage colony stimulating factor. Type of data set: cell-based. To be noted: data not shown.
Another data set concerns mouse primary B cells. Kind of data set: mouse B cell antibody class switching to IgG1. Type of data set: cell-based. To be noted: αCD40 + IL-4, 96 h. From the text: Studies with p110δ inhibitors have shown that low PI3K signaling in B cells promotes antibody class switch recombination (CSR) and decreases differentiation into plasmablasts that secrete low-affinity IgM ([18], [19]). Activation of mouse primary B cells with αCD40 + IL-4 or LPS + IL-4 both induce IgG1 class switching while treatment with LPS alone induces the plasmablast differentiation fate (Figure 5A). In B cells stimulated with αCD40 + IL-4, IPI-3063 increased the percentage of B220^+ cells switching to IgG1 starting at 1 nM and approached the effect of GDC-0941 (Figure 5B).
Figure 5 IPI-3063 potently […] mouse B cell antibody switching and inhibits plasmablast differentiation. Purified B cells were pretreated with inhibitors, then stimulated with αCD40 + IL-4 (B) or LPS + IL-4 (C) for 96 h to induce switching to IgG1 or LPS (D) for 72 h to induce plasmablast differentiation. Class switching to IgG1 was measured by the 7AAD^−CFSE^loB220^+IgG1^+ cells [(A), upper panels]. Plasmablast percentages were calculated by % 7AAD^−CFSE^loCD138^+B220^lo population [(A), lower]. Supernatant was harvested (E) for IgM ELISA. […]
Mouse splenic B cells were purified by negative selection (eBioscience Magnisort Mouse B cell enrichment kit). B-cell purity was >95% as measured by FACS analysis (FACSCalibur and CellQuest software; BD Biosciences) using anti-B220 antibody (BioLegend). […]

Data set [2] concerns the target T1, p110γ (Mus musculus, UniProt Q9JHG7). Further details: method as in PMID 16789742. To be noted: read-out: biochemical IC50; cited from earlier work.
For the next data set, the system named is p110α. Kind of data set: isoform-specific cell-based assay, pAKT S473 ELISA. To be noted: read-out: Cellular IC50. How it is done:
(§1) Phospho-Akt1 (S473) sandwich ELISA antibody kit (Cell Signaling Technology, cat. no. 7143) was utilized to analyze pAKT signal in cells as described previously by Winkler et al. ([11]) (for data see Table 2). Briefly, SKOV3 and 786.0 cells were seeded into 96-well cell culture-graded plates at a density of […] per 200 µl culture media per well. Raji and Raw264.7 were seeded at the same density in FBS-free media. After overnight incubation at 5% CO2 and 37°C, the cells were treated with inhibitor for 30 min. Raji cells were stimulated with 10 µg/mL anti-human IgM (Jackson ImmunoResearch) for 30 min and Raw264.7 cells with 25 nM C5a (RnD Systems) for 3 min in the presence of inhibitor. SKOV3 and 786.0 cells were not stimulated. Medium was then aspirated and 50 µL/well of ice-cold lysis buffer was added. pAKT level was determined according to the manufacturer’s instruction.
For orientation: ELISA stands for enzyme-linked immunosorbent assay.

A further data set relates to p110δ. Kind of data set: isoform-specific cell-based assay, pAKT S473 ELISA. On the procedure:
as §1

Details of data set [3]: method as in PMID 24211136. The settings on record: cited from earlier work.
Another data set concerns the target p110β (Homo sapiens, UniProt P42338). Put plainly: isoform-specific cell-based assay, pAKT S473 ELISA. Also on record: endogenous in cells; host or cells: 786.0. To be noted: read-out: Cellular IC50. How it is done:
as §1

Data set [4] deals with T1, p110γ. Kind of data set: isoform-specific cell-based assay, pAKT S473 ELISA. Further details: endogenous in cells; host or cells: Raw264.7. To be noted: read-out: Cellular IC50. On the procedure:
as §1

The structures appear in SMILES notation. Read-outs that look alike come from different tables or passages of the source. Some results are limits rather than exact numbers.

For orientation: IC50 means the midpoint of a concentration-inhibition curve.

T1 sequence (Q9JHG7 whole entry, canonical isoform): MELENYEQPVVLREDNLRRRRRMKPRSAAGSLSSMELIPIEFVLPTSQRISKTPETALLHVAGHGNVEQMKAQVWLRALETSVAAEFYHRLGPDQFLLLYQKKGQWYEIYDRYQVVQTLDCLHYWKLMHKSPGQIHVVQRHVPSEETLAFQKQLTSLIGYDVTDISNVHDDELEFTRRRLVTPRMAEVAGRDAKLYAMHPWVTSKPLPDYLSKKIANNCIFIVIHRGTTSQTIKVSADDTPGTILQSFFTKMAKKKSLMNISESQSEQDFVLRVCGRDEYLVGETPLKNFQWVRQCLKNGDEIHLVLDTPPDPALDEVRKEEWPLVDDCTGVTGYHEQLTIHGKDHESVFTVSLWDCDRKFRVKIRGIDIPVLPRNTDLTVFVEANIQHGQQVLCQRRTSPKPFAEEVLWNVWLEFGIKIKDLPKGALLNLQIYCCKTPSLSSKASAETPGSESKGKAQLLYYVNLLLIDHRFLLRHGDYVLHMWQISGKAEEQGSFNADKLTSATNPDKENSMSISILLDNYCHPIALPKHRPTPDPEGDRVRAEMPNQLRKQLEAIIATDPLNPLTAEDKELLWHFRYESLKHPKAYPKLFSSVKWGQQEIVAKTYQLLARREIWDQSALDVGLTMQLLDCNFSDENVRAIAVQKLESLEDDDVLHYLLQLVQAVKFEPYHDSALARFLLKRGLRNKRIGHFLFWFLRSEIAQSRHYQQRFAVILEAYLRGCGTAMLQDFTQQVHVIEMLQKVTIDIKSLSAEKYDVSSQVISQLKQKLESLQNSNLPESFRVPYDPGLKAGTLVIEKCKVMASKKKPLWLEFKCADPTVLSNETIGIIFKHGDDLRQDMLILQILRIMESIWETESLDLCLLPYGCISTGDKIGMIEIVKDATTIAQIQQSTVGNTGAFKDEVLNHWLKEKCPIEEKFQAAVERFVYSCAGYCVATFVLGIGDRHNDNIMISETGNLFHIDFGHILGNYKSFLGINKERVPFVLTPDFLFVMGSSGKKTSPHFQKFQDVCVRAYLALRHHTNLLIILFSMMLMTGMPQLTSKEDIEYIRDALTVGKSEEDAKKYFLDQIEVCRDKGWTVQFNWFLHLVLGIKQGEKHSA
Chain of p110β (P42338 whole entry, canonical isoform): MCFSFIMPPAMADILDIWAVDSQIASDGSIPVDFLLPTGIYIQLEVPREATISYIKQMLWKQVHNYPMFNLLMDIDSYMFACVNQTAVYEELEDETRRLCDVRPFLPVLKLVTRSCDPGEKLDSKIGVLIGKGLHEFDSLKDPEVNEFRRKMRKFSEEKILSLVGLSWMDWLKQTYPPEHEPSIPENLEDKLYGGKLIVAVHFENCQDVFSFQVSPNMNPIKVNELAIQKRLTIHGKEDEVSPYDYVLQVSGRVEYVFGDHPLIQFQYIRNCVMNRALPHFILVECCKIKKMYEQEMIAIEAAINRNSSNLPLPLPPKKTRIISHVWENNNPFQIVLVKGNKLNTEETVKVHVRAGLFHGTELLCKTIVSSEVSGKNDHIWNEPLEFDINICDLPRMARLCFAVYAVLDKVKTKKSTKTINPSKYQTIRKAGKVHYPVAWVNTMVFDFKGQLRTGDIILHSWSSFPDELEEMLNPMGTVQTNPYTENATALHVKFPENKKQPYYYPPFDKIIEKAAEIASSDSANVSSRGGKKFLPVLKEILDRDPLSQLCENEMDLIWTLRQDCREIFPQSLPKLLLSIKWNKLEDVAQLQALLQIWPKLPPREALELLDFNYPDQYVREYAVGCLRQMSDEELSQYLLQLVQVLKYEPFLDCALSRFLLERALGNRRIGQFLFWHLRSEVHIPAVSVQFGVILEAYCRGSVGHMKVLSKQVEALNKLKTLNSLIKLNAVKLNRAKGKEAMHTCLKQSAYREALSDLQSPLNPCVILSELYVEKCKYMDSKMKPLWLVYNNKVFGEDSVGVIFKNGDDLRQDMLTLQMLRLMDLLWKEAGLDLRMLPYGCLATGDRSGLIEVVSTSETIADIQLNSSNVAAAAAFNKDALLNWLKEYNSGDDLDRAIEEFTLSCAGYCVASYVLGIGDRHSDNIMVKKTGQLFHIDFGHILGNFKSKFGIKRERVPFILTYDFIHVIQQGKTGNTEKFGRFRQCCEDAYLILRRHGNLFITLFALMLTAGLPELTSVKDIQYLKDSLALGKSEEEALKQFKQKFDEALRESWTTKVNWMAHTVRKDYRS
Chain of p110β (P27986 whole entry partner, canonical isoform): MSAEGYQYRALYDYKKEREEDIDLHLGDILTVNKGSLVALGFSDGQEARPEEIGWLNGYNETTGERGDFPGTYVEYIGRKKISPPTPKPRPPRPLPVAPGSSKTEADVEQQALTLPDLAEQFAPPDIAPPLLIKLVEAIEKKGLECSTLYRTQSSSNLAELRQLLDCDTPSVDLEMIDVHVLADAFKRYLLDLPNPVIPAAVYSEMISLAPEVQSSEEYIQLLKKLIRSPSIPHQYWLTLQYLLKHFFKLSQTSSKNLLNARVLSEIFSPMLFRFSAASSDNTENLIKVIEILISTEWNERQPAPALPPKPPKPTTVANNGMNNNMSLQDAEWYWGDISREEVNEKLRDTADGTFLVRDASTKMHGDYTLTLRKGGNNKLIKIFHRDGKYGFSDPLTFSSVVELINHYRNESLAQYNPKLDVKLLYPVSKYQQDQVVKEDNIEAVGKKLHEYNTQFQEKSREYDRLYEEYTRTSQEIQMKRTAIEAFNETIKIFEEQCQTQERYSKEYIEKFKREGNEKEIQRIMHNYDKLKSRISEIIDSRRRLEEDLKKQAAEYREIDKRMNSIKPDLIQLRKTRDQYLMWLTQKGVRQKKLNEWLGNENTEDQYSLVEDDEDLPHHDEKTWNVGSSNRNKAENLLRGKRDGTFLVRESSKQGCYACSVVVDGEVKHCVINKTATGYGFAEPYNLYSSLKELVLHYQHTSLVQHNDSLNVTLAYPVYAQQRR

In the case of `O=C1NC(=O)/C(=C/c2ccc(-c3ccc(F)cc3O)o2)S1` [AS-252424, reference compound], the “effect on AKT phosphorylation” value in data set [1] is on record as “dose-dependent inhibition”. In addition, the “effect on IgG1 switching” value in the data set on mouse primary B cells is listed as “no effect”. For the same compound, the IC50 at p110γ [2] is 30 nM.
`CC(C)n1c([C@H](C)Nc2ncnc(N)c2C#N)cc2cccc(-c3ccc(=O)n(C)c3)c2c1=O` [IPI-3063]: the IC50 turned out to be 1900 nM with p110α; 0.1 ± 0.01 nM in the data set on p110δ (p110δ-specific cell-based assay, pAKT S473, read-out: Cellular IC50); 103 ± 35.7 nM on p110β; 419 ± 117 nM on p110γ [4]. In addition, in the data set with p110δ (other class I isoforms vs p110δ, cell-based), the “cellular IC50 values for the other class I PI3K isoforms relative to p110δ” value was “at least 1,000 fold”. The “concentration that increases percentage of B220+ cells switching to IgG1” value with mouse primary B cells is on record as not below 1 nM. The pharmacokinetics in mice entry in data set [3] is reported as “good”.

(Values after paper PMC5491903, “The Selective Phosphoinoside-3-Kinase p110δ Inhibitor IPI-3063 Potently Suppresses B Cell Survival, Proliferation, and Differentiation” (Frontiers in Immunology, 2017).)
